Results published in PubChem BioAssay AID2060910 (Molecular Pharmacology Branch, DTP, NCI, 2025).

System: 242566-281-R-J2-PDC complex spheroid viability
Assay: Anticancer human tumor 242566-281-R-J2-PDC patient-derived pancreatic carcinoma cell line growth inhibition [RAS]
Settings: for IC50: curve of first compound; for viability, T/C: stronger effect = lower value
Summary of the method: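 Tumour cells grown as complex spheroids with HUVEC endothelial cells and mesenchymal stem cells, treated with RAS pathway inhibitor combinations. Each agent spans half-log steps from near clinical Cmax, or 10 microM where Cmax is unknown.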

[1] = second compound 0.000949 µM, first compound 0.0316 µM
[2] = second compound 0.000949 µM, first compound 0.1 µM
[3] = second compound 0.000949 µM, first compound 0.316 µM
[4] = second compound 0.000949 µM, first compound 1 µM
[5] = second compound 0.000949 µM, first compound 3.16 µM
[6] = second compound 0.000949 µM, first compound 10 µM
[7] = second compound 0.003 µM, first compound 0.0316 µM
[8] = second compound 0.003 µM, first compound 0.1 µM
[9] = second compound 0.003 µM, first compound 0.316 µM
[10] = second compound 0.003 µM, first compound 1 µM
[11] = second compound 0.003 µM, first compound 3.16 µM
[12] = second compound 0.003 µM, first compound 10 µM
[13] = second compound 0.00949 µM, first compound 0.0316 µM
[14] = second compound 0.00949 µM, first compound 0.1 µM
[15] = second compound 0.00949 µM, first compound 0.316 µM
[16] = second compound 0.00949 µM, first compound 1 µM
[17] = second compound 0.00949 µM, first compound 3.16 µM
[18] = second compound 0.00949 µM, first compound 10 µM
[19] = second compound 0.03 µM, first compound 0.0316 µM
[20] = second compound 0.03 µM, first compound 0.1 µM
[21] = second compound 0.03 µM, first compound 0.316 µM
[22] = second compound 0.03 µM, first compound 1 µM
[23] = second compound 0.03 µM, first compound 3.16 µM
[24] = second compound 0.03 µM, first compound 10 µM
[25] = second compound 0.0949 µM, first compound 0.0316 µM
[26] = second compound 0.0949 µM, first compound 0.1 µM
[27] = second compound 0.0949 µM, first compound 0.316 µM
[28] = second compound 0.0949 µM, first compound 1 µM
[29] = second compound 0.0949 µM, first compound 3.16 µM
[30] = second compound 0.0949 µM, first compound 10 µM
[31] = second compound 0.3 µM, first compound 0.0316 µM
[32] = second compound 0.3 µM, first compound 0.1 µM
[33] = second compound 0.3 µM, first compound 0.316 µM
[34] = second compound 0.3 µM, first compound 1 µM
[35] = second compound 0.3 µM, first compound 3.16 µM
[36] = second compound 0.3 µM, first compound 10 µM
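Further: spheroids exposed to compound for 7 days before readout.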
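Wherever viability, T/C is given: 100% = DMSO vehicle control wells.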

SMILES: CC(Nc1ccc2c(c1)OCCn1cc(N3C(=O)OCC3C(F)F)nc1-2)C(N)=O (stereo unspecified) + CCn1c(-c2cccnc2C(C)OC)c2c3cc(ccc31)N1CCOC(CC(NC(=O)C(C(C)C)N(C)C(=O)C3(F)CCN(C(=O)C#CC(C)(C)N(C)C)CC3)C(=O)N3CCCC(N3)C(=O)OCC(C)(C)C2)C1
- IC50 (second compound 0.000949 µM): 0.918 µM
- IC50 (second compound 0.003 µM): 1.11 µM
- IC50 (second compound 0.00949 µM): 1.05 µM
- IC50 (second compound 0.03 µM): 0.963 µM
- IC50 (second compound 0.0949 µM): 0.872 µM
- IC50 (second compound 0.3 µM): 0.329 µM
- viability, T/C [1]: 108%
- viability, T/C [2]: 81.6%
- viability, T/C [3]: 54.7%
- viability, T/C [4]: 55%
- viability, T/C [5]: 36.5%
- viability, T/C [6]: 17.4%
- viability, T/C [7]: 91.4%
- viability, T/C [8]: 79.4%
- viability, T/C [9]: 64.8%
- viability, T/C [10]: 51.2%
- viability, T/C [11]: 37.7%
- viability, T/C [12]: 18.1%
- viability, T/C [13]: 101%
- viability, T/C [14]: 79.8%
- viability, T/C [15]: 70%
- viability, T/C [16]: 54%
- viability, T/C [17]: 29.9%
- viability, T/C [18]: 20.8%
- viability, T/C [19]: 85.4%
- viability, T/C [20]: 83%
- viability, T/C [21]: 68.8%
- viability, T/C [22]: 52.3%
- viability, T/C [23]: 26.3%
- viability, T/C [24]: 22.9%
- viability, T/C [25]: 88.8%
- viability, T/C [26]: 77.9%
- viability, T/C [27]: 69.9%
- viability, T/C [28]: 48.6%
- viability, T/C [29]: 25.5%
- viability, T/C [30]: 17.7%
- viability, T/C [31]: 77.5%
- viability, T/C [32]: 67.5%
- viability, T/C [33]: 50.4%
- viability, T/C [34]: 33.1%
- viability, T/C [35]: 22.7%
- viability, T/C [36]: 16.2%

SMILES: C[C@@H](NC(=O)c1ncnc(N)c1Cl)c1ncc(C(=O)Nc2cc(C(F)(F)F)c(Cl)cn2)s1 + CCn1c(-c2cc(N3CCN(C)CC3)cnc2C(C)OC)c2c3cc(ccc31)-c1csc(n1)CC(NC(=O)C1CC1C)C(=O)N1CCCC(N1)C(=O)OCC(C)(C)C2
- IC50 (second compound 0.000949 µM): > 10 µM
- IC50 (second compound 0.003 µM): > 10 µM
- IC50 (second compound 0.00949 µM): > 10 µM
- IC50 (second compound 0.03 µM): < 0.0316 µM
- IC50 (second compound 0.0949 µM): < 0.0316 µM
- IC50 (second compound 0.3 µM): < 0.0316 µM
- viability, T/C [1]: 98.8%
- viability, T/C [2]: 114%
- viability, T/C [3]: 82.7%
- viability, T/C [4]: 97.9%
- viability, T/C [5]: 106%
- viability, T/C [6]: 76.4%
- viability, T/C [7]: 89.8%
- viability, T/C [8]: 73.5%
- viability, T/C [9]: 71.6%
- viability, T/C [10]: 79.2%
- viability, T/C [11]: 92.7%
- viability, T/C [12]: 62.3%
- viability, T/C [13]: 54%
- viability, T/C [14]: 49.3%
- viability, T/C [15]: 54.7%
- viability, T/C [16]: 63.3%
- viability, T/C [17]: 58.9%
- viability, T/C [18]: 52.7%
- viability, T/C [19]: 35.3%
- viability, T/C [20]: 35.2%
- viability, T/C [21]: 39.9%
- viability, T/C [22]: 35.4%
- viability, T/C [23]: 29.8%
- viability, T/C [24]: 40.1%
- viability, T/C [25]: 22.9%
- viability, T/C [26]: 24.8%
- viability, T/C [27]: 25.7%
- viability, T/C [28]: 27.2%
- viability, T/C [29]: 23.6%
- viability, T/C [30]: 26.3%
- viability, T/C [31]: 21.2%
- viability, T/C [32]: 23.5%
- viability, T/C [33]: 22.2%
- viability, T/C [34]: 19.9%
- viability, T/C [35]: 21.9%
- viability, T/C [36]: 22.6%

SMILES: CC(=O)OC12COC1CC(O)C1(C)C(=O)C(O)C3=C(C)C(OC(=O)C(O)C(NC(=O)OC(C)(C)C)c4ccccc4)CC(O)(C(OC(=O)c4ccccc4)C21)C3(C)C (stereo unspecified) + C#Cc1c(F)ccc2cc(O)cc(-c3ncc4c(N5CC6CCC(C5)N6)nc(OCC56CCCN5CC(F)C6)nc4c3F)c12
- IC50 (second compound 0.0316 µM): > 10 µM
- IC50 (second compound 0.1 µM): < 0.0316 µM
- IC50 (second compound 0.316 µM): < 0.0316 µM
- IC50 (second compound 1 µM): < 0.0316 µM
- IC50 (second compound 3.16 µM): < 0.0316 µM
- IC50 (second compound 10 µM): < 0.0316 µM
- viability, T/C (second compound 0.0316 µM, first compound 0.0316 µM): 62.9%
- viability, T/C (second compound 0.0316 µM, first compound 0.1 µM): 54.2%
- viability, T/C (second compound 0.0316 µM, first compound 0.316 µM): 55%
- viability, T/C (second compound 0.0316 µM, first compound 1 µM): 37.4%
- viability, T/C (second compound 0.0316 µM, first compound 3.16 µM): 55.3%
- viability, T/C (second compound 0.0316 µM, first compound 10 µM): 71.7%
- viability, T/C (second compound 0.1 µM, first compound 0.0316 µM): 54.4%
- viability, T/C (second compound 0.1 µM, first compound 0.1 µM): 52.1%
- viability, T/C (second compound 0.1 µM, first compound 0.316 µM): 42.2%
- viability, T/C (second compound 0.1 µM, first compound 1 µM): 40.9%
- viability, T/C (second compound 0.1 µM, first compound 3.16 µM): 52.8%
- viability, T/C (second compound 0.1 µM, first compound 10 µM): 56.9%
- viability, T/C (second compound 0.316 µM, first compound 0.0316 µM): 45.7%
- viability, T/C (second compound 0.316 µM, first compound 0.1 µM): 43.1%
- viability, T/C (second compound 0.316 µM, first compound 0.316 µM): 30.8%
- viability, T/C (second compound 0.316 µM, first compound 1 µM): 40.6%
- viability, T/C (second compound 0.316 µM, first compound 3.16 µM): 39.9%
- viability, T/C (second compound 0.316 µM, first compound 10 µM): 43.6%
- viability, T/C (second compound 1 µM, first compound 0.0316 µM): 37.8%
- viability, T/C (second compound 1 µM, first compound 0.1 µM): 36.4%
- viability, T/C (second compound 1 µM, first compound 0.316 µM): 36.5%
- viability, T/C (second compound 1 µM, first compound 1 µM): 32.3%
- viability, T/C (second compound 1 µM, first compound 3.16 µM): 34.2%
- viability, T/C (second compound 1 µM, first compound 10 µM): 29%
- viability, T/C (second compound 3.16 µM, first compound 0.0316 µM): 37.1%
- viability, T/C (second compound 3.16 µM, first compound 0.1 µM): 26.4%
- viability, T/C (second compound 3.16 µM, first compound 0.316 µM): 23.6%
- viability, T/C (second compound 3.16 µM, first compound 1 µM): 30.3%
- viability, T/C (second compound 3.16 µM, first compound 3.16 µM): 30.7%
- viability, T/C (second compound 3.16 µM, first compound 10 µM): 23.2%
- viability, T/C (second compound 10 µM, first compound 0.0316 µM): 30.2%
- viability, T/C (second compound 10 µM, first compound 0.1 µM): 26.5%
- viability, T/C (second compound 10 µM, first compound 0.316 µM): 23.4%
- viability, T/C (second compound 10 µM, first compound 1 µM): 25.6%
- viability, T/C (second compound 10 µM, first compound 3.16 µM): 28.6%
- viability, T/C (second compound 10 µM, first compound 10 µM): 28.2%
